From paper PMC2728155 (Molecular cancer therapeutics, 2009)
Where two headings read alike, the source gives them in different places.

Legend:
[1] = molecular target: T1, murine sEH (Mus musculus, UniProt P34914); assay: Fluorescent sEH inhibition assay
T1 sequence (P34914 1-554): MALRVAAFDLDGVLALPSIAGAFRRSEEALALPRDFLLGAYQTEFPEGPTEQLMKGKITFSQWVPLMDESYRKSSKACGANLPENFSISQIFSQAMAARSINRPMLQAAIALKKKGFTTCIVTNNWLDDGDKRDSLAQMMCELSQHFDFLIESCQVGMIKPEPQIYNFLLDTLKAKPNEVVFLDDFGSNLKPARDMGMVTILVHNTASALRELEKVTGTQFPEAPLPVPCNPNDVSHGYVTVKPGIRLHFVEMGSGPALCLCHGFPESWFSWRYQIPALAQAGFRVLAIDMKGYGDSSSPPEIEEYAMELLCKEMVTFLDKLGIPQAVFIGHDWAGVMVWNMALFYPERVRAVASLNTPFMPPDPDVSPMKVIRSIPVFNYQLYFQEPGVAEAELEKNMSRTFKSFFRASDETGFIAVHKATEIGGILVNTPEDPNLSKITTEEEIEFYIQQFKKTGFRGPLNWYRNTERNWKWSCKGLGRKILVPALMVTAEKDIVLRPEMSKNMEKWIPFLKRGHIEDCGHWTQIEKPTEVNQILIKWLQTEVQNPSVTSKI

[2] = system: ERK phosphorylation in ACHN and A498 cells; assay: Immunoblot of ERK phosphorylation after PDGF stimulation; assay type: cell-based, human; conditions: two RCC cell lines (ACHN, A498), 10 μM, 1 h, then PDGF 10 ng/ml 15 min
[3] = man, phase I study, cited from earlier work
[4] = mice, sorafenib tosylate 5 mg/kg oral
[5] = system: caspase-1 and caspase-3 activity in ACHN and A498 cells; assay: Caspase assay; assay type: cell-based, human; conditions: 10 μM, 48 h
[6] = in vivo; conditions: male, Swiss-Webster, mouse, po, 5 mg/kg
[7] = system: ACHN and A498 human RCC cells; assay: MTT assay of cell growth; assay type: cell-based; conditions: 10 μM, 48 h
[8] = molecular target: T2, human sEH (Homo sapiens, UniProt P34913); assay: biochemical; assay type: biochemical
T2 sequence (P34913 1-555): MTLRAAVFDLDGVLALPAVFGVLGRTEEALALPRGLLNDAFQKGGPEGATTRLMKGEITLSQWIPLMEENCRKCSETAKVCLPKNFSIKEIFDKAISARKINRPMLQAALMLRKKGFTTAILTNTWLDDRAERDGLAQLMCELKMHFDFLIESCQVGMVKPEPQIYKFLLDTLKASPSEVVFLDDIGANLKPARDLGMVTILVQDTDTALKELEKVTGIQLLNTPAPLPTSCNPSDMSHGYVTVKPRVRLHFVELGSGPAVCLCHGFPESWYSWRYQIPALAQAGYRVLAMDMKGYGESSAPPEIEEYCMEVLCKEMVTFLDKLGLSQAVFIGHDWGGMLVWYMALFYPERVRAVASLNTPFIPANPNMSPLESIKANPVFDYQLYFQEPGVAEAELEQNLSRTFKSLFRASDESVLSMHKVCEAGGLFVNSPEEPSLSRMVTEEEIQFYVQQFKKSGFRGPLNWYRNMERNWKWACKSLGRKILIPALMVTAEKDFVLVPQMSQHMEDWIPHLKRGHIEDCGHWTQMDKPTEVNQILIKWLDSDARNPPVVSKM

[9] = molecular target: T2, human sEH; assay type: biochemical; conditions: read-out: Inhibition of the Human sEH KI; pH 7.4

In the case of `Cc1nc(Nc2ncc(C(=O)Nc3c(C)cccc3Cl)s2)cc(N2CCN(CCO)CC2)n1` [Dasatinib], the IC50 [1] is reported as 27 µM.
For `COc1cccc(-c2cc(=O)c3ccccc3o2)c1N` [PD98059], the ERK phosphorylation [2] was “attenuate ERK phosphorylation”.
For `CNC(=O)c1cc(Oc2ccc(NC(=O)Nc3ccc(Cl)c(C(F)(F)F)c3)cc2)ccn1` [Sorafenib], the Cmax ([3]; similar doses) is given as greater than 1500 nM, the AUC0-12 [3] is given as “more than 13000 nM h” and the Elimination half life [3] is given as “more than 20 hours”. For the same molecule, the Tmax [3] was “more than 2 h”, the “Blood level after 24 h” value [4] was “no sorafenib could be detected” and the “Apoptosis: caspase-1 and caspase-3 activity” value [5] was “activation of caspase-1 and caspase-3 activity”. For the same molecule, the ERK phosphorylation [2] was “attenuate ERK phosphorylation”, the AUC(0-t) [6] was 0.63 µM·h and the Cmax [6] was roughly 120 nM. The half-life [6] was 2.6 h and the “Decrease of cell growth as compared to serum-stimulated cells” value [7] was 65-70%.
With `CCN(CC)CCNC(=O)c1c(C)[nH]c(/C=C2\C(=O)Nc3ccc(F)cc32)c1C` [Sunitinib] the IC50 [8] was 55 µM and the “Inhibition of the human sEH (in words)” value ([8]; fluorescent assay) was “not potent inhibitors of the human sEH”.
Molecule `CS(=O)(=O)N1CCC(NC(=O)Nc2ccc(OC(F)(F)F)cc2)CC1` [TUPS] has a Ki [9] of 0.014 ± 0.004 µM and an IC50 ([8]; read-out: Inhibition of the Human sEH IC50, pH 7) of 0.003 ± 0.001 µM.
